{
  "source": "patent US20100075972A1",
  "about": "“AGENT FOR TREATMENT OF MULTIPLE SCLEROSIS” (Kowa Co., Ltd., priority 2007, published 2010)",
  "key": {"[1]": {"test_system": "experimental autoimmune encephalomyelitis model", "assay": "experimental autoimmune encephalomyelitis mouse model, symptom scores", "type": "in vivo, C57BL/6 mice", "method": "The experimental autoimmune encephalomyelitis model is established by immunizing a mouse with myelin protein (i.e., myelin-sheath-constituting protein), thereby causing T-cell-mediated autoimmune inflammation in the central nervous system.\nSeven-week-old female C57BL/6 mice (Charles River Laboratories Japan, Inc.) were employed. A sensitizing emulsion for causing the mice to develop experimental autoimmune encephalomyelitis was prepared by mixing myelin oligodendrocyte glycoprotein (MOG) 35-55 (Alexis Biochemical) with an equiamount of complete Freund's adjuvant H37Ra (DIFCO) so that the MOG concentration was 2 mg/mL, followed by homogenization under ice cooling by means of Handy Micro Homogenizer (product of Microtec Co., Ltd.). The thus-prepared emulsion (0.1 mL) was intradermally administered to each mouse at its tail base for initial sensitization. On the same day, pertussis toxin dissolved in saline (500 ng/0.3 mL) was intravenously injected to the tail. Two days after initial sensitization, in a manner similar to that described above, pertussis toxin (500 ng/0.3 mL) was intravenously injected for booster. Drug A was orally administered (30 mg/kg) twice a day in the morning (9:00 to 11:00) and in the evening (15:30 to 17:30) from the day following the initial sensitization to 42 days after sensitization.\nThe drugs were evaluated from the condition of experimentally created autoimmune encephalomyelitis according to the following ratings:\nscore 1: limp tail or abnormal gait;\nscore 2: limp tail and abnormal gait;\nscore 3: paralysis of one limb;\nscore 4: paralysis of two or more limbs; and\nIn FIGS. 1 and 2 and Table 1, the data for each group (10 mice) are represented by average value±standard error (non-parametric Dunnett's test)."}, "IL-6 mRNA": {"test_system": "IL-6 mRNA", "assay": "IL-6 mRNA expression in the spinal cord of experimental autoimmune encephalomyelitis mice (real-time PCR)", "type": "in vivo", "conditions": "day 42, spinal cord of EAE mice of Example 1, corrected by ribosomal RNA", "description": "(§1) On day 42, the spinal cord was removed from the mice employed in Example 1, and total RNA was recovered by use of ISOGEN (Nippon Gene Co., Ltd.). For comparison, similarly, the spinal cord was extirpated from unsensitized normal mice, and was employed for the below-described quantitative determination. cDNA was synthesized from the thus-obtained total RNA by use of a reverse transcriptase, and the amount of mRNA of the following gene (F4/80, TNF-α, IL-1β, or IL-6) was quantitatively determined by means of an ABI PRISM 7900HT system (Applied Biosystems) through real-time PCR employing a TaqMan probe according to the protocol of Applied Biosystems. Meanwhile, the amount of ribosomal RNA was determined, and employed for correction."}, "IL-1β mRNA": {"test_system": "IL-1β mRNA", "assay": "IL-1β mRNA expression in the spinal cord of experimental autoimmune encephalomyelitis mice (real-time PCR)", "type": "in vivo", "conditions": "day 42, spinal cord of EAE mice of Example 1, corrected by ribosomal RNA", "description": "as §1"}, "F4/80 mRNA": {"test_system": "F4/80 mRNA", "assay": "F4/80 mRNA expression in the spinal cord of experimental autoimmune encephalomyelitis mice (real-time PCR)", "type": "in vivo", "conditions": "day 42, spinal cord of EAE mice of Example 1, corrected by ribosomal RNA", "description": "as §1"}, "TNF-α mRNA": {"test_system": "TNF-α mRNA", "assay": "TNF-α mRNA expression in the spinal cord of experimental autoimmune encephalomyelitis mice (real-time PCR)", "type": "in vivo", "conditions": "day 42, spinal cord of EAE mice of Example 1, corrected by ribosomal RNA", "description": "as §1"}, "[2]": {"test_system": "interleukin-1β production", "conditions": "as disclosed in WO 99/25697; cited from earlier work"}, "[3]": {"conditions": "oral administration of drug A 30 mg/kg twice a day"}},
  "data": [
    {"smiles": "CSc1ccc(-c2nn(Cc3ccccc3)c(=O)cc2-c2ccc(Cl)cc2)cc1", "note": "[Drug A, 2-Benzyl-5-(4-chlorophenyl)-6-[4-(methylthio)phenyl]-2H-pyridazin-3-one]", "values": [
      {"measurement": "Incidence rate, symptoms corresponding to score 2 or worse", "setting": "[1]; EAE mice, 10 per group, Drug A 30 mg/kg orally twice a day to day 42, IFN-β 10,000 IU/individual subcutaneously every other day", "result": "8/10"},
      {"measurement": "death case during the experiment (score 5)", "setting": "[1]; EAE mice, 42 days after sensitization, Drug A 30 mg/kg orally twice a day, IFN-β 10,000 IU/individual s.c. every other day", "result": "no death case was observed"},
      {"measurement": "Days required for onset, symptoms corresponding to score 2 or worse", "setting": "[1]; EAE mice, average ± standard error, Drug A 30 mg/kg orally twice a day, IFN-β 10,000 IU/individual subcutaneously every other day", "result": "22.4 ± 1.5", "unit": "days"},
      {"measurement": "experimental autoimmune encephalomyelitis scores (FIG. 1)", "setting": "[1]; [3]", "result": "ameliorated to almost the same extent as in the case of IFN-β"},
      {"measurement": "maximum score of experimental autoimmune encephalomyelitis symptoms (FIG. 2)", "setting": "[1]; [3]", "result": "tended to be reduced"},
      {"measurement": "onset of symptoms corresponding to score 2 or worse (in words)", "setting": "[1]; [3]", "result": "tended to be delayed"},
      {"measurement": "expression of IL-6 mRNA in spinal cord", "setting": "IL-6 mRNA", "result": "found to be reduced"},
      {"measurement": "expression of IL-1β mRNA in spinal cord", "setting": "IL-1β mRNA", "result": "found to be reduced"},
      {"measurement": "amount of expression of mRNA of F4/80 in spinal cord", "setting": "F4/80 mRNA", "result": "found to be reduced"},
      {"measurement": "expression of TNF-α mRNA in spinal cord", "setting": "TNF-α mRNA", "result": "found to be reduced"},
      {"measurement": "interleukin-1β production inhibitory effect", "setting": "[2]", "result": "excellent"}
    ]}
  ]
}
